We go through 15 compounds from patent US20220009894A1, “1,2,3,4-TETRAHYDROQUINOXALINE DERIVATIVE, PREPARATION METHOD THEREFOR AND APPLICATION THEREOF” (Abbisko Therapeutics Co., Ltd., priority 2019, published 2022).

In test [1] the target is T1, RORγt (Homo sapiens, UniProt P51449).
T1 construct: The plasmid of pFN26A-RORγt-LBD and pG14.35 (Promega, Cat. No. E1370) were co-transfected into HEK 293 cells; expressed in transfected cells; host or cells: HEK 293 cells (Cat. No. GNHu18)
T1 sequence (P51449 269-508 limits assumed): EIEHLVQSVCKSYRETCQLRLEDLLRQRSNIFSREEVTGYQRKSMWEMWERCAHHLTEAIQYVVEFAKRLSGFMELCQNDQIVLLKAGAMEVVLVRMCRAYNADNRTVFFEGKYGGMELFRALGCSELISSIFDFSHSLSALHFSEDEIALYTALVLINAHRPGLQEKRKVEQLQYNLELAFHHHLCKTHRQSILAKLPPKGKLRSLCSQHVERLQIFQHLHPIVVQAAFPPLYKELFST
Briefly: RORγt cellular reporter gene detection assay.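 As to Cellular Reporter Assay Amax: Ursolic Acid added as 5 µL of 20 µM medium per well.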 The settings on record: 24 hrs; for EC50: HEK 293 cells co-transfected with pFN26A-RORγt-LBD and pG14.35, in presence of antagonist Ursolic acid, top concentration 50 μM; for Cellular Reporter Assay Amax: upper activation limit, HEK 293 cells, in presence of antagonist Ursolic acid. Format: cell-based. An outline of the steps: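 Compounds, titrated 4-fold from a 50 μM top concentration, were added with Ursolic acid to HEK293 cells carrying a RORγt-LBD plasmid and a reporter plasmid. After 24 h at 37° C, dual firefly/Renilla luciferase readout; four-parameter curves gave EC50 and maximal activation (Amax).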
(In general: A reporter such as luciferase makes a cellular process visible.)

Test [2] deals with T2, RORγt-LBD (Homo sapiens, UniProt P51449).
T2 sequence (P51449 269-508 limits assumed): T1 sequence (P51449 269-508 limits assumed)
The test is described as follows: Time-resolved fluorescence resonance energy-transfer assay (TR-FRET), co-activator peptide recruitment. The format is biochemical. Also noted: TR-FRET Biochemical Amax: unit not given here. Conditions: for EC50: His-RORγt-LBD 30 nM, SRC peptide 500 nM, agonistic activity, averages of one or more measurements, read-out: TR-FRET Biochemical EC50/; for TR-FRET Biochemical Amax: upper activation limit, His-RORγt-LBD, SRC peptide. In outline:
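This agonist-mode TR-FRET used 30 nM His-tagged RORγt-LBD, 500 nM biotinylated SRC peptide, 0.25 nM Eu-anti-His and 5 nM APC-streptavidin in pH 7.0 Tris/KCl buffer with DTT and Triton. A 7-concentration, 5-fold compound series was incubated at 4 °C overnight plus 1 h at room temperature, and the 665/615 nm signal was read.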
Background: TR-FRET usually uses a lanthanide donor and a delayed reading to cut background.

With `CC1(C)C=C(c2ccc3c(c2)N(S(=O)(=O)c2cc(C(F)(F)F)cnc2OCCO)C[C@@H]2CNCCN32)CC(C)(C)O1` [Example 88, (S)-2-((3-((8-(2,2,6,6-tetramethyl-3,6-dihydro-2H-pyran-4-yl)-1,2,3,4,4a,5-hexa hydro-6H-pyrazino[1,2-a]quinoxalin-6-yl)sulfonyl)-5-(trifluoromethyl)pyridin-2-yl)oxy)ethan-1-ol], the EC50 in test [1] was at least 50 µM. Also, in test [2], the EC50 turned out to be 0.191 µM and the “TR-FRET Biochemical Amax” value stood at 0.72.
Take `CC(=O)N1CCN2c3ccc(/C=C/c4c(Cl)cccc4C(F)(F)F)cc3N(S(=O)(=O)c3cccc(OC(F)(F)F)c3)C[C@@H]2C1` [Example 84, (S,E)-1-(8-(2-chloro-6-(trifluoromethyl)styryl)-6-((3-(trifluoromethoxy)phenyl)sulfonyl)-1,2,4,4a,5,6-hexahydro-3H-pyrazino[1,2-a]quinoxalin-3-yl)ethan-1-one]: in test [1], the EC50 was 1.14 µM and the “Cellular Reporter Assay Amax” value stood at 4.7. For the same compound, in test [2], the EC50 is 0.207 µM and the “TR-FRET Biochemical Amax” value was 0.76.
With `CC1(C)C=C(c2ccc3c(c2)N(S(=O)(=O)c2cccc(C(F)(F)F)c2)C[C@@H]2CNCCN32)CC(C)(C)O1` [Example 13, (S)-8-(2,2,6,6-tetramethyl-3,6-dihydro-2H-pyran-4-yl)-6-((3-(trifluorometh-yl)phenyl)sulfonyl)-2,3,4,4a,5,6-hexahydro-1H-pyrazino[1,2-a]quinoxaline], in test [1], the EC50 was determined as 1.42 µM and the “Cellular Reporter Assay Amax” value was 1.7. In test [2], the EC50 came to 0.0358 µM and the “TR-FRET Biochemical Amax” value came out at 0.74.
For `CC1(C)C=C(c2ccc3c(c2)N(S(=O)(=O)c2cccc(C(F)(F)F)c2)C[C@@H]2CN(C[C@H](O)CO)CCN32)CC(C)(C)O1` [Example 42, (S)-3-((S)-8-(2,2,6,6-tetrameth-yl-3,6-dihydro-2H-pyran-4-yl)-6-((3-(trifluoromethyl)phenyl)sulfonyl)-1,2,4,4a,5,6-hexa-hydro-3H-pyrazino[1,2-a]qui-noxalin-3-yl)propane-1,2-diol], in test [1], the EC50 was found to be 0.123 µM and the “Cellular Reporter Assay Amax” value is on record as 1.4. Also, in test [2], the EC50 was found to be 0.00084 µM and the “TR-FRET Biochemical Amax” value was found to be 1.28.
Regarding `C/C(=C\c1ccc2c(c1)N(S(=O)(=O)c1cccc(C(F)(F)F)c1)C[C@@H]1CN(C3COC3)CCN21)c1c(F)cccc1Cl` [Example 33, (S,E)-8-(2-(2-chloro-6-fluoro-phenyl)prop-1-en-1-yl)-3-(oxetan-3-yl)-6-((3-(trifluoro-methyl)pheny4)sulfonyl)-2,3,4,4a,5,6-hexahydro-1H-pyrazino[1,2-a]quinoxaline], in test [1], the EC50 is 2.04 µM and the “Cellular Reporter Assay Amax” value is recorded as 5.2. Moreover, in test [2], the EC50 amounted to 0.0457 µM and the “TR-FRET Biochemical Amax” value was 0.93.
As for `C/C(=C\c1ccc2c(c1)N(S(=O)(=O)c1cccc(C(F)(F)F)c1)C[C@@H]1CN(C(=O)CC#N)CCN21)c1c(F)cccc1Cl` [Example 30, (S,E)-3-(8-(2-(2-chloro-6-fluorophenyl)prop-1-en-1-yl)-6-((3-(trifluoromethyl)phenyl)sulfonyl)-1,2,4,4a, 5,6-hexahydro-3H-pyrazino [1,2-a]quinoxalin-3-yl)-3-oxopropanenitrile], in test [1], the EC50 is 0.404 µM and the “Cellular Reporter Assay Amax” value is on record as 4.0. In addition, in test [2], the EC50 came out at 0.00834 µM and the “TR-FRET Biochemical Amax” value came to 0.80.
On the same counts, the results for `NC(=O)C1(N2CCN3c4ccc(/C=C/c5c(Cl)cccc5C(F)(F)F)cc4N(S(=O)(=O)c4cccc(C(F)(F)F)c4)C[C@@H]3C2)CCC1` [Example 81, (S,E)-1-(8-(2-chloro-6-(trifluoro-methyl)styryl)-6-((3-(trifluoro-methyl)phenyl)sulfonyl)-1,2,4,4a,5,6-hexa-hydro-3H-pyrazino[1,2-a]quinoxalin-3-yl) cyclobutane-1-carboxamide] are 0.355 µM, 4.0, 0.0212 µM and 1.19.
For the compound `C/C(=C\c1ccc2c(c1)N(S(=O)(=O)c1cccc(C(F)(F)F)c1)C[C@@H]1CN(C(CO)(CO)C(N)=O)CCN21)c1c(F)cccc1Cl` [Example 75, (S,E)-2-(8-(2-(2-chloro-6-fluorophenyl)prop-1-en-1-yl)-6-((3-(trifluoromethyl)phenyl)sulfonyl)-1,2,4,4a,5,6-hexahydro-3H-pyrazino[1,2-a]quinoxalin-3-yl)-3-hydroxy-2-(hydroxymethyl)propanamide], in test [1], the EC50 stood at 1.19 µM and the “Cellular Reporter Assay Amax” value turned out to be 3.7. Moreover, in test [2], the EC50 was found to be 0.0557 µM and the “TR-FRET Biochemical Amax” value worked out at 0.87.
On to `O=C(O)CN1CCN2c3ccc(-c4cc(F)cc(OC(F)F)c4)cc3N(S(=O)(=O)c3cc(C(F)(F)F)cnc3OCCO)C[C@@H]2C1` [Example 91, (S)-2-(8-(3-(difluoromethoxy)-5-fluorophenyl)-6-((2-(2-hydroxyethoxy)-5-(trifluoromethyl)pyridin-3-yl)sulfonyl)-1,2,4,4a,5,6-hexahydro-3H-pyrazino[1,2-a]quinoxalin-3-yl)acetic acid], for which, in test [1], the EC50 was 3.76 µM and the “Cellular Reporter Assay Amax” value came to 4.1. Further, in test [2], the EC50 was determined as 0.0341 µM and the “TR-FRET Biochemical Amax” value came to 0.47.
For the compound `CC(C)(C)OC(=O)C(C)(C)N1CCN2c3ccc(/C=C/c4c(Cl)cccc4C(F)(F)F)cc3N(S(=O)(=O)c3cccc(C(F)(F)F)c3)C[C@@H]2C1` [Example 52, tert-butyl (S,E)-2-(8-(2-chloro-6-(trifluoromethyl)styryl)-6-((3-(trifluoromethyl)phenyl)sul-fonyl)-1,2,4,4a,5,6-hexahydro-3H-pyrazino[1,2-a]quinoxalin-3-yl)-2-methylpropanoate], the results for the EC50 in test [1] and in test [2] were at least 50 µM and 0.184 µM, respectively. For the same compound, in test [2], the “TR-FRET Biochemical Amax” value came to 0.50.
As for `O=S(=O)(c1cccc(C(F)(F)F)c1)N1C[C@@H]2CCCN2c2ccc(-c3cc(F)cc(OC(F)F)c3)cc21` [Example 4, (S)-7-(3-(difluoromethoxy)-5-fluorophenyl)-5-((3-(trifluoromethyl)phenyl)sulfonyl)-1,2,3,3a,4,5-hexa-hydropyrrolo[1,2-a]qui-noxaline], in test [1], the EC50 was determined as 3.55 µM and the “Cellular Reporter Assay Amax” value is 4.9. Also, in test [2], the EC50 came out at 0.0284 µM and the “TR-FRET Biochemical Amax” value came out at 1.25.
In the case of `CC(=O)N1CCN2c3ccc(C4=CC(C)(C)OC(C)(C)C4)cc3N(S(=O)(=O)c3cccc(C(F)(F)F)c3)C[C@@H]2C1` [Example 16, (S)-1-(8-(2,2,6,6-tetramethyl-yl-3,6-dihydro-2H-pyran-4-yl)-6-((3-(trifluoromethyl)phenyl)sulfonyl)-1,2,4,4a, 5,6-hexahydro-3H-pyrazino [1,2-a]quinoxalin-3-yl) ethan-1-one], in test [1], the EC50 is 0.059 µM and the “Cellular Reporter Assay Amax” value came out at 2.0. Besides, in test [2], the EC50 turned out to be 0.00952 µM and the “TR-FRET Biochemical Amax” value is reported as 0.78.
Consider `O=S(=O)(c1cccc(C(F)(F)F)c1)N1C[C@@H]2CNCCN2c2ccc(-c3cc(F)cc(OC(F)F)c3)cc21` [Example 12, (S)-8-(3-(difluoromethoxy)-5-fluorophenyl)-6-((3-(trifluoromethyl)phenyl)sulfonyl)-2,3,4,4a,5,6-hexa-hydro-1H-pyrazino[1,2-a]quinoxaline], for which, in test [1], the EC50 turned out to be 2.39 µM and the “Cellular Reporter Assay Amax” value amounted to 4.3. In test [2], the EC50 came to 0.136 µM and the “TR-FRET Biochemical Amax” value came to 0.67.
Turning to `C/C(=C\c1ccc2c(c1)N(S(=O)(=O)c1cccc(C(F)(F)F)c1)C[C@@H]1CN(S(C)(=O)=O)CCN21)c1c(F)cccc1Cl` [Example 18, (S,E)-8-(2-(2-chloro-6-fluorophenyl)prop-1-en-1-yl)-3-(methylsulfonyl)-6-((3-(trifluoromethyl)phenyl)sulfonyl)-2,3,4,4a, 5,6-hexahydro-1H-pyrazino[1,2-a]quinoxaline], in test [1], the EC50 was 0.178 µM and the “Cellular Reporter Assay Amax” value stood at 4.3. Also, in test [2], the EC50 is 0.0151 µM and the “TR-FRET Biochemical Amax” value stood at 0.62.
For the compound `C/C(=C\c1ccc2c(c1)N(S(=O)(=O)c1cccc(C(F)(F)F)c1)C[C@@H]1CN(C(C)(C)C(=O)O)CCN21)c1c(F)cccc1Cl` [Example 56, (S,E)-2-(8-(2-(2-chloro-6-fluoro-phenyl)prop-1-en-1-yl)-6-((3-(trifluoromethyl)phenyl)sulfo-nyl)-1,2,4,4a,5,6-hexahydro-3H-pyrazino[1,2-a]quinoxalin-3-yl)-2-methylpropanoic acid], in test [1], the EC50 is 0.622 µM and the “Cellular Reporter Assay Amax” value is 3.2. Besides, in test [2], the EC50 was determined as 0.0445 µM and the “TR-FRET Biochemical Amax” value is listed as 0.71.
